# From the supplement of paper PMC10307832
# Assays:
# Assay in all cases: relative viability (nuclei count vs DMSO), 5 days (fraction); higher = more cells survive
# A-427 = tested on: A-427
# Summary of the method: (§1)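 One day after seeding in 1536-well plates, lung cancer cell lines were dosed by pin tool. Dosing was either single-drug or a fixed anchor-drug dose plus five library-drug doses (not always all listed) in √10 steps. After 5 days, nuclei were stained in one fix-and-stain step and counted on 4× images, and relative viability is the nuclei count of treated wells over that of vehicle wells, given as the median of duplicate plates.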
# CAL-12T = tested on: CAL-12T
# Summary of the method: as §1
# EPLC-272H = tested on: EPLC-272H
# Summary of the method: as §1
# HOP-62 = tested on: HOP-62
# Summary of the method: as §1
# LCLC-103H = tested on: LCLC-103H
# Summary of the method: as §1
# LXF-289 = tested on: LXF-289
# Summary of the method: as §1
# NCI-H1395 = tested on: NCI-H1395
# Summary of the method: as §1
# NCI-H1651 = tested on: NCI-H1651
# Summary of the method: as §1
# NCI-H1975 = tested on: NCI-H1975
# Summary of the method: as §1
# NCI-H1993 = tested on: NCI-H1993
# Summary of the method: as §1
# NCI-H2085 = tested on: NCI-H2085
# Summary of the method: as §1
# NCI-H2087 = tested on: NCI-H2087
# Summary of the method: as §1
# NCI-H2170 = tested on: NCI-H2170
# Summary of the method: as §1
# NCI-H3122 = tested on: NCI-H3122
# Summary of the method: as §1
# NCI-H596 = tested on: NCI-H596
# Summary of the method: as §1
# NCI-H647 = tested on: NCI-H647
# Summary of the method: as §1
# NCI-H650 = tested on: NCI-H650
# Summary of the method: as §1
# PC-14 = tested on: PC-14
# Summary of the method: as §1
# RERF-LC-KJ = tested on: RERF-LC-KJ
# Summary of the method: as §1
smiles,measurement,setting,value
O=C(O)CCCCC(CCSCc1ccccc1)SCc1ccccc1 (stereo not given) [CPI-613] + NC(=O)Nc1cc(-c2cccc(F)c2)sc1C(=O)N[C@H]1CCCNC1 [AZD7762] (partner 0.2 µM),relative viability,A-427; first compound 5 µM,0.66
same,relative viability,A-427; first compound 15.81 µM,0.642
same,relative viability,A-427; first compound 50 µM,0.661
same,relative viability,A-427; first compound 158.11 µM,0.326
same,relative viability,A-427; first compound 500 µM,0.173
same,relative viability,CAL-12T; first compound 5 µM,0.624
same,relative viability,CAL-12T; first compound 15.81 µM,0.457
same,relative viability,CAL-12T; first compound 50 µM,0.509
same,relative viability,CAL-12T; first compound 158.11 µM,0.541
same,relative viability,CAL-12T; first compound 500 µM,0.469
same,relative viability,EPLC-272H; first compound 5 µM,0.209
same,relative viability,EPLC-272H; first compound 15.81 µM,0.302
same,relative viability,EPLC-272H; first compound 50 µM,0.189
same,relative viability,EPLC-272H; first compound 158.11 µM,0.143
same,relative viability,EPLC-272H; first compound 500 µM,0.3
same,relative viability,HOP-62; first compound 5 µM,0.703
same,relative viability,HOP-62; first compound 15.81 µM,0.398
same,relative viability,HOP-62; first compound 50 µM,0.649
same,relative viability,HOP-62; first compound 158.11 µM,0.235
same,relative viability,HOP-62; first compound 500 µM,0.216
same,relative viability,LCLC-103H; first compound 5 µM,0.738
same,relative viability,LCLC-103H; first compound 15.81 µM,0.764
same,relative viability,LCLC-103H; first compound 50 µM,0.755
same,relative viability,LCLC-103H; first compound 158.11 µM,0.65
same,relative viability,LCLC-103H; first compound 500 µM,0.501
same,relative viability,LXF-289; first compound 5 µM,1
same,relative viability,LXF-289; first compound 15.81 µM,1
same,relative viability,LXF-289; first compound 50 µM,1.03
same,relative viability,LXF-289; first compound 158.11 µM,0.722
same,relative viability,LXF-289; first compound 500 µM,0.774
same,relative viability,NCI-H1395; first compound 5 µM,0.42
same,relative viability,NCI-H1395; first compound 15.81 µM,0.403
same,relative viability,NCI-H1395; first compound 50 µM,0.381
same,relative viability,NCI-H1395; first compound 158.11 µM,0.4
same,relative viability,NCI-H1395; first compound 500 µM,0.327
same,relative viability,NCI-H1651; first compound 5 µM,0.484
same,relative viability,NCI-H1651; first compound 15.81 µM,0.421
same,relative viability,NCI-H1651; first compound 50 µM,0.421
same,relative viability,NCI-H1651; first compound 158.11 µM,0.317
same,relative viability,NCI-H1651; first compound 500 µM,0.45
same,relative viability,NCI-H1975; first compound 5 µM,0.734
same,relative viability,NCI-H1975; first compound 15.81 µM,0.682
same,relative viability,NCI-H1975; first compound 50 µM,0.581
same,relative viability,NCI-H1975; first compound 158.11 µM,0.666
same,relative viability,NCI-H1975; first compound 500 µM,0.677
same,relative viability,NCI-H1993; first compound 5 µM,0.743
same,relative viability,NCI-H1993; first compound 15.81 µM,0.688
same,relative viability,NCI-H1993; first compound 50 µM,0.65
same,relative viability,NCI-H1993; first compound 158.11 µM,0.537
same,relative viability,NCI-H1993; first compound 500 µM,0.286
same,relative viability,NCI-H2085; first compound 5 µM,0.895
same,relative viability,NCI-H2085; first compound 15.81 µM,0.785
same,relative viability,NCI-H2085; first compound 50 µM,0.895
same,relative viability,NCI-H2085; first compound 158.11 µM,0.856
same,relative viability,NCI-H2085; first compound 500 µM,0.209
same,relative viability,NCI-H2087; first compound 5 µM,1.4
same,relative viability,NCI-H2087; first compound 15.81 µM,0.87
same,relative viability,NCI-H2087; first compound 50 µM,1.16
same,relative viability,NCI-H2087; first compound 158.11 µM,0.446
same,relative viability,NCI-H2087; first compound 500 µM,0.01
same,relative viability,NCI-H2170; first compound 5 µM,0.878
same,relative viability,NCI-H2170; first compound 15.81 µM,0.826
same,relative viability,NCI-H2170; first compound 50 µM,0.865
same,relative viability,NCI-H2170; first compound 158.11 µM,0.607
same,relative viability,NCI-H2170; first compound 500 µM,0.231
same,relative viability,NCI-H3122; first compound 5 µM,0.989
same,relative viability,NCI-H3122; first compound 15.81 µM,0.977
same,relative viability,NCI-H3122; first compound 50 µM,1.01
same,relative viability,NCI-H3122; first compound 158.11 µM,0.973
same,relative viability,NCI-H3122; first compound 500 µM,0.842
same,relative viability,NCI-H596; first compound 5 µM,1.16
same,relative viability,NCI-H596; first compound 15.81 µM,0.939
same,relative viability,NCI-H596; first compound 50 µM,1.11
same,relative viability,NCI-H596; first compound 158.11 µM,0.818
same,relative viability,NCI-H596; first compound 500 µM,0.0374
same,relative viability,NCI-H647; first compound 5 µM,0.502
same,relative viability,NCI-H647; first compound 15.81 µM,0.32
same,relative viability,NCI-H647; first compound 50 µM,0.406
same,relative viability,NCI-H647; first compound 158.11 µM,0.282
same,relative viability,NCI-H647; first compound 500 µM,0.343
same,relative viability,NCI-H650; first compound 5 µM,1.01
same,relative viability,NCI-H650; first compound 15.81 µM,0.925
same,relative viability,NCI-H650; first compound 50 µM,1.03
same,relative viability,NCI-H650; first compound 158.11 µM,0.49
same,relative viability,NCI-H650; first compound 500 µM,0.655
same,relative viability,PC-14; first compound 5 µM,0.349
same,relative viability,PC-14; first compound 15.81 µM,0.252
same,relative viability,PC-14; first compound 50 µM,0.296
same,relative viability,PC-14; first compound 158.11 µM,0.256
same,relative viability,PC-14; first compound 500 µM,0.16
same,relative viability,RERF-LC-KJ; first compound 5 µM,0.98
same,relative viability,RERF-LC-KJ; first compound 15.81 µM,0.917
same,relative viability,RERF-LC-KJ; first compound 50 µM,1
same,relative viability,RERF-LC-KJ; first compound 158.11 µM,0.94
same,relative viability,RERF-LC-KJ; first compound 500 µM,0.921
